Test system: Genes belonging to other category
Experiment: DNA chip mRNA expression in yeast, genes belonging to other category (Table 9)
Format: cell-based, Saccharomyces cerevisiae S288C
Method in brief: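 Chemical exposure: 2 h, log-phase S. cerevisiae S288C, YPD, 25° C., dose set to inhibit growth without death. Profiling: mRNA labeled by reverse transcription with Cy3- or Cy5-dUTP, hybridized to whole-genome array. Output: fluorescence ratio against untreated culture.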

CCCCC[C@H](O)CC(=O)CCc1ccc(O)c(OC)c1 [(13), gingerol]
The level of expressed mRNA in the presence of chemical substance/The level of expressed mRNA in the absence of chemical substance (yeast gene YKL041W): 1.3 | The level of expressed mRNA in the presence of chemical substance/The level of expressed mRNA in the absence of chemical substance (yeast gene YKL096W): 0.1 | The level of expressed mRNA in the presence of chemical substance/The level of expressed mRNA in the absence of chemical substance (yeast gene YKL139W): 1.6 | The level of expressed mRNA in the presence of chemical substance/The level of expressed mRNA in the absence of chemical substance (yeast gene YKL165C): 3.2 | The level of expressed mRNA in the presence of chemical substance/The level of expressed mRNA in the absence of chemical substance (yeast gene YKL190W): 1.3 | The level of expressed mRNA in the presence of chemical substance/The level of expressed mRNA in the absence of chemical substance (yeast gene YKL193C): 2.1 | The level of expressed mRNA in the presence of chemical substance/The level of expressed mRNA in the absence of chemical substance (yeast gene YKR014C): 1.5 | The level of expressed mRNA in the presence of chemical substance/The level of expressed mRNA in the absence of chemical substance (yeast gene YLL051C): 1.3 | The level of expressed mRNA in the presence of chemical substance/The level of expressed mRNA in the absence of chemical substance (yeast gene YLR090W): 1.7 | The level of expressed mRNA in the presence of chemical substance/The level of expressed mRNA in the absence of chemical substance (yeast gene YLR093C): 1.3 | The level of expressed mRNA in the presence of chemical substance/The level of expressed mRNA in the absence of chemical substance (yeast gene YLR120C): 4.8 | The level of expressed mRNA in the presence of chemical substance/The level of expressed mRNA in the absence of chemical substance (yeast gene YLR136C): 2.9 | The level of expressed mRNA in the presence of chemical substance/The level of expressed mRNA in the absence of chemical substance (yeast gene YLR250W): 1.2 | The level of expressed mRNA in the presence of chemical substance/The level of expressed mRNA in the absence of chemical substance (yeast gene YLR251W): 1.7 | The level of expressed mRNA in the presence of chemical substance/The level of expressed mRNA in the absence of chemical substance (yeast gene YLR327C): 2.8 | The level of expressed mRNA in the presence of chemical substance/The level of expressed mRNA in the absence of chemical substance (yeast gene YMR004W): 2.2 | The level of expressed mRNA in the presence of chemical substance/The level of expressed mRNA in the absence of chemical substance (yeast gene YMR051C): 1.3 | The level of expressed mRNA in the presence of chemical substance/The level of expressed mRNA in the absence of chemical substance (yeast gene YMR104C): 1.5 | The level of expressed mRNA in the presence of chemical substance/The level of expressed mRNA in the absence of chemical substance (yeast gene YMR139W): 1.6 | The level of expressed mRNA in the presence of chemical substance/The level of expressed mRNA in the absence of chemical substance (yeast gene YMR219W): 2.1 | The level of expressed mRNA in the presence of chemical substance/The level of expressed mRNA in the absence of chemical substance (yeast gene YMR226C): 1.6 | The level of expressed mRNA in the presence of chemical substance/The level of expressed mRNA in the absence of chemical substance (yeast gene YMR262W): 1.7 | The level of expressed mRNA in the presence of chemical substance/The level of expressed mRNA in the absence of chemical substance (yeast gene YMR275C): 2.1 | The level of expressed mRNA in the presence of chemical substance/The level of expressed mRNA in the absence of chemical substance (yeast gene YMR276W): 1.9 | The level of expressed mRNA in the presence of chemical substance/The level of expressed mRNA in the absence of chemical substance (yeast gene YMR314W): 2.6 | The level of expressed mRNA in the presence of chemical substance/The level of expressed mRNA in the absence of chemical substance (yeast gene YNL006W): 2.3 | The level of expressed mRNA in the presence of chemical substance/The level of expressed mRNA in the absence of chemical substance (yeast gene YNL007C): 2.1 | The level of expressed mRNA in the presence of chemical substance/The level of expressed mRNA in the absence of chemical substance (yeast gene YNL093W): 2.2 | The level of expressed mRNA in the presence of chemical substance/The level of expressed mRNA in the absence of chemical substance (yeast gene YNL214W): 1.2 | The level of expressed mRNA in the presence of chemical substance/The level of expressed mRNA in the absence of chemical substance (yeast gene YNL223W): 2.0 | The level of expressed mRNA in the presence of chemical substance/The level of expressed mRNA in the absence of chemical substance (yeast gene YNL333W): 2.2 | The level of expressed mRNA in the presence of chemical substance/The level of expressed mRNA in the absence of chemical substance (yeast gene YNR007C): 1.5 | The level of expressed mRNA in the presence of chemical substance/The level of expressed mRNA in the absence of chemical substance (yeast gene YNR010W): 2.8 | The level of expressed mRNA in the presence of chemical substance/The level of expressed mRNA in the absence of chemical substance (yeast gene YNR035C): 1.7 | The level of expressed mRNA in the presence of chemical substance/The level of expressed mRNA in the absence of chemical substance (yeast gene YOL013C): 1.8 | The level of expressed mRNA in the presence of chemical substance/The level of expressed mRNA in the absence of chemical substance (yeast gene YOL016C): 3.0 | The level of expressed mRNA in the presence of chemical substance/The level of expressed mRNA in the absence of chemical substance (yeast gene YOL104C): 0.6 | The level of expressed mRNA in the presence of chemical substance/The level of expressed mRNA in the absence of chemical substance (yeast gene YOR117W): 2.3 | The level of expressed mRNA in the presence of chemical substance/The level of expressed mRNA in the absence of chemical substance (yeast gene YOR149C): 1.3 | The level of expressed mRNA in the presence of chemical substance/The level of expressed mRNA in the absence of chemical substance (yeast gene YOR181W): 1.2 | The level of expressed mRNA in the presence of chemical substance/The level of expressed mRNA in the absence of chemical substance (yeast gene YOR185C): 2.2 | The level of expressed mRNA in the presence of chemical substance/The level of expressed mRNA in the absence of chemical substance (yeast gene YOR355W): 1.1 | The level of expressed mRNA in the presence of chemical substance/The level of expressed mRNA in the absence of chemical substance (yeast gene YOR381W): 1.7 | The level of expressed mRNA in the presence of chemical substance/The level of expressed mRNA in the absence of chemical substance (yeast gene YOR383C): 1.2 | The level of expressed mRNA in the presence of chemical substance/The level of expressed mRNA in the absence of chemical substance (yeast gene YPL018W): 2.2 | The level of expressed mRNA in the presence of chemical substance/The level of expressed mRNA in the absence of chemical substance (yeast gene YPL089C): 1.3 | The level of expressed mRNA in the presence of chemical substance/The level of expressed mRNA in the absence of chemical substance (yeast gene YPL149W): 2.3 | The level of expressed mRNA in the presence of chemical substance/The level of expressed mRNA in the absence of chemical substance (yeast gene YPL203W): 1.5 | The level of expressed mRNA in the presence of chemical substance/The level of expressed mRNA in the absence of chemical substance (yeast gene YPL255W): 0.6 | The level of expressed mRNA in the presence of chemical substance/The level of expressed mRNA in the absence of chemical substance (yeast gene YPR108W): 2.6

From patent US8192962B2, “Processes for detecting toxic substances” (Daikin Industries, Ltd., priority 2001, dated 2012)
